From article PMC8284454, “In Vitro Profiling of Antitubercular Compounds by Rapid, Efficient, and Nondestructive Assays Using Autoluminescent Mycobacterium tuberculosis” (Antimicrobial Agents and Chemotherapy, 2021)
In brackets after ≈: the same amount, converted by molar mass. Like-named read-outs stand apart in the source and are kept apart here. Marks after values point to notes of the source that are not given here.

Tests used:
[1] = system: J774-internalized M. tuberculosis (H37Rv); assay: intracellular activity by luminescence (EC90); format: cell-based, Mycobacterium tuberculosis; conditions: for EC90: RLU
[2] = system: M. tuberculosis H37Rv_LuxABCDE; assay: MIC used to set PAE concentrations (Table 4); format: cell-based; conditions: Mycobacterium tuberculosis
From the text: TABLE 4 Comparison of post antibiotic effect values (h) obtained via CFU and RLU measurement for two established TB drugs (rifampin and isoniazid) and two emerging TB lead candidates (ecumicin and rufomycin)^a | column: MIC (μM)

[3] = system: M. tuberculosis H37Rv_LuxABCDE; assay: microbe, parasite or virus in culture; format: cell-based, Mycobacterium tuberculosis; conditions: Mycobacterium tuberculosis, day 7, SD from three independent experiments, read-out: MBC (±SD) via CFU
[4] = system: M. tuberculosis H37Rv_LuxABCDE; assay: luminescence-based MBC assay (LMBCA) / time-kill; format: cell-based, Mycobacterium tuberculosis; conditions: for MBC: Mycobacterium tuberculosis, 99% reduction in RLU vs T0
infected J774 = conditions: day 7, 8 μM
[5] = system: M. tuberculosis H37Rv_LuxABCDE; assay: microplate alamarBlue assay (MABA) MIC; conditions: 90% reduction of fluorescence, 7 days, 7H12 medium; SD from three independent experiments
[6] = system: M. tuberculosis H37Rv_LuxABCDE; assay: postantibiotic effect by luminescence (RLU); format: cell-based, Mycobacterium tuberculosis; conditions: 1.5 log10 RLU increase, 1:10,000-fold dilution; for PAE 100× MIC RLU: 3 h exposure at 100× MIC
[7] = system: M. tuberculosis H37Rv_LuxABCDE; assay: luminescence-based MIC assay (LMICA); conditions: 90% reduction of luminescence, 7 days, 7H12 medium; SD from three independent experiments
[8] = system: macrophage-internalized M. tuberculosis; conditions: EC90, high-content imaging on day 5; read-out: Literature reported EC90; cited from earlier work
[9] = system: M. tuberculosis H37Rv_LuxABCDE; format: cell-based, Mycobacterium tuberculosis; conditions: 1:10,000-fold dilution; for PAE 100× MIC CFU/ml: 3 h exposure at 100× MIC

NNC(=O)c1ccncc1 [Isoniazid]
EC90 ([1]; Mycobacterium tuberculosis, H37RV, 72 h, EC90, day 3, J774 macrophages, read-out: Intracellular activity, EC90 (±SD) Day 3): > 8 µM
inhibition at 8 µM ([1]; Mycobacterium tuberculosis, H37RV, 72 h, day 3, 8 μM, read-out: percent inhibition at the highest tested concentration, intracellular activity Day 3): 77%
EC90 ([1]; Mycobacterium tuberculosis, H37RV, 120 h, EC90, day 5, J774 macrophages, read-out: Intracellular activity, EC90 (±SD) Day 5): 1.05 µM
EC90 ([1]; Mycobacterium tuberculosis, H37RV, 168 h, EC90, day 7, J774 macrophages, read-out: Intracellular activity, EC90 (±SD) Day 7): 0.52 µM
onset of growth inhibition of internalized M. tuberculosis ([1]; early = EC90 obtainable by day 3, late = EC90 obtainable by day 5 or later): late growth inhibition
MIC [2]: 0.3 µM (≈ 0.0411 µg/mL)
MBC [3]: 0.46 µM (≈ 0.0631 µg/mL)
MBC ([4]; 168 h, day 7, SD from three independent experiments, read-out: MBC (±SD) via luminescence): 0.57 µM (≈ 0.0782 µg/mL)
MBC ([4]; 336 h, day 14, read-out: MBC (±SD) by luminescence on day 14): 2.56 µM (≈ 0.351 µg/mL)
MBC ([4]; 504 h, day 21, read-out: MBC (±SD) by luminescence on day 21): 3.23 µM (≈ 0.443 µg/mL)
change of MBC values over time ([4]; over 21 days, luminescence time-kill): increase
time and/or concentration dependence of bactericidal activity ([4]; time-kill curves up to day 21): mainly time dependent
Toxicity against infected J774, percent inhibition at the highest tested concentration (infected J774): 8 (0)* percent
MIC (±SD) MABA [5]: 0.30 (0.05) μM
PAE 1× MIC RLU ([6]; 3 h exposure at 1× MIC): 0 h
PAE 10× MIC RLU ([6]; 3 h exposure at 10× MIC): 0 h
PAE 100× MIC RLU [6]: 0 h
PAE 100× MIC RLU ([6]; listed as isoniazid): no observable PAE
MIC (±SD) LMICA [7]: 0.24 (0.08) μM
EC90 [8]: 1.2 µM
PAE 1× MIC CFU/ml ([9]; 3 h exposure at 1× MIC): 0 h
PAE 10× MIC CFU/ml ([9]; 3 h exposure at 10× MIC): 0 h
PAE 100× MIC CFU/ml [9]: 0 h
PAE 100× MIC CFU/ml ([9]; listed as isoniazid): no observable PAE
